Measurements from PubChem BioAssay AID2060883 (Molecular Pharmacology Branch, DTP, NCI, 2025).
Values joined by “and” are separate entries in the source; they are usually repeats but may differ in a detail not shown here. Equal entries are not always repeated.

Tested on: 843782-103-R-J1-PDC complex spheroid viability
Test: Anticancer human tumor 843782-103-R-J1-PDC patient-derived lung adenocarcinoma cell line growth inhibition [RAS]
Details: for viability, T/C: stronger effect = lower value
Method in brief: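 Tumour cells grown as complex spheroids with HUVEC endothelial cells and mesenchymal stem cells, treated with RAS pathway inhibitor combinations. Each agent spans half-log steps from near clinical Cmax, or 10 microM where Cmax is unknown.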
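Further: viability read after seven days of compound exposure.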

For CC1(C)CCC(Nc2ncc(C(F)(F)F)c(-c3c[nH]c4c(P(C)(C)=O)c(C#N)ccc34)n2)CN1 (centres undefined) + CCn1c(-c2cc(N3CCN(C)CC3)cnc2C(C)OC)c2c3cc(ccc31)-c1csc(n1)CC(NC(=O)C1CC1C)C(=O)N1CCCC(N1)C(=O)OCC(C)(C)C2, the IC50 (curve of first compound, second compound 0.000949 µM) was 5.42 nM, the IC50 (curve of first compound, second compound 0.003 µM) was 2.24 nM and the IC50 (curve of first compound, second compound 0.00949 µM) was under 0.949 nM. The IC50 (curve of first compound, second compound 0.03 µM) was under 0.949 nM, the IC50 (curve of first compound, second compound 0.0949 µM) was under 0.949 nM and the IC50 (curve of first compound, second compound 0.3 µM) was under 0.949 nM. For the same molecule, the viability, T/C (second compound 0.000949 µM, first compound 0.000949 µM) was 72.5%, the viability, T/C (second compound 0.000949 µM, first compound 0.003 µM) was 68.5% and the viability, T/C (second compound 0.000949 µM, first compound 0.00949 µM) was 32.6%. For the same molecule, the viability, T/C (second compound 0.000949 µM, first compound 0.03 µM) was 14.2%, the viability, T/C (second compound 0.000949 µM, first compound 0.0949 µM) was 12% and the viability, T/C (second compound 0.000949 µM, first compound 0.3 µM) was 11.8%. It also gave a viability, T/C (second compound 0.003 µM, first compound 0.000949 µM) of 60.5%, a viability, T/C (second compound 0.003 µM, first compound 0.003 µM) of 46.6% and a viability, T/C (second compound 0.003 µM, first compound 0.00949 µM) of 22.8%. For the same molecule, the viability, T/C (second compound 0.003 µM, first compound 0.03 µM) was 14.1%, the viability, T/C (second compound 0.003 µM, first compound 0.0949 µM) was 11.1% and the viability, T/C (second compound 0.003 µM, first compound 0.3 µM) was 11%. It also gave a viability, T/C (second compound 0.00949 µM, first compound 0.000949 µM) of 39.2%, a viability, T/C (second compound 0.00949 µM, first compound 0.003 µM) of 29.3% and a viability, T/C (second compound 0.00949 µM, first compound 0.00949 µM) of 18.7%. The viability, T/C (second compound 0.00949 µM, first compound 0.03 µM) was 10.5%, the viability, T/C (second compound 0.00949 µM, first compound 0.0949 µM) was 12.1% and the viability, T/C (second compound 0.00949 µM, first compound 0.3 µM) was 10.9%. For the same molecule, the viability, T/C (second compound 0.03 µM, first compound 0.000949 µM) was 20.1%, the viability, T/C (second compound 0.03 µM, first compound 0.003 µM) was 21.7% and the viability, T/C (second compound 0.03 µM, first compound 0.00949 µM) was 14.5%. The viability, T/C (second compound 0.03 µM, first compound 0.03 µM) was 12.2%, the viability, T/C (second compound 0.03 µM, first compound 0.0949 µM) was 10.5% and the viability, T/C (second compound 0.03 µM, first compound 0.3 µM) was 9.54%. For the same molecule, the viability, T/C (second compound 0.0949 µM, first compound 0.000949 µM) was 18.7%, the viability, T/C (second compound 0.0949 µM, first compound 0.003 µM) was 18.2% and the viability, T/C (second compound 0.0949 µM, first compound 0.00949 µM) was 14.1%. For the same molecule, the viability, T/C (second compound 0.0949 µM, first compound 0.03 µM) was 12.2%, the viability, T/C (second compound 0.0949 µM, first compound 0.0949 µM) was 10.3% and the viability, T/C (second compound 0.0949 µM, first compound 0.3 µM) was 10.3%. The viability, T/C (second compound 0.3 µM, first compound 0.000949 µM) was 14.5%, the viability, T/C (second compound 0.3 µM, first compound 0.003 µM) was 14.3% and the viability, T/C (second compound 0.3 µM, first compound 0.00949 µM) was 11.9%. It also gave a viability, T/C (second compound 0.3 µM, first compound 0.03 µM) of 11.7%, a viability, T/C (second compound 0.3 µM, first compound 0.0949 µM) of 11.5% and a viability, T/C (second compound 0.3 µM, first compound 0.3 µM) of 10.1%.

C=CC(=O)Nc1cc(Nc2nccc(-c3cn(C)c4ccccc34)n2)c(OC)cc1N(C)CCN(C)C was tested, and the viability, T/C (compound 0.00316 µM) was 101% [middle of 4 runs], the viability, T/C (compound 0.01 µM) was 99.7% [middle of 4 runs] and the viability, T/C (compound 0.0316 µM) was 95.9% [middle of 4 runs]. For the same molecule, the viability, T/C (compound 0.1 µM) was 102% (2×) and 84% and 95.2%, the viability, T/C (compound 0.316 µM) was 91.4% [middle of 4 runs] and the viability, T/C (compound 1 µM) was 68% [middle of 4 runs]. It also gave an IC50 (curve of compound) of over 1000 nM.
